Results as given in patent US11191765B2, “Heterocyclic compounds for the inhibition of PASK” (BioEnergenix LLC, priority 2012, dated 2021).

Each compound was assayed against PASK (Invitrogen) (Homo sapiens (Human), UniProt Q96RG2) (assay: PAS Kinase FRET Assay). Conditions: TR-FRET (665 nm/615 nm), Ulight-peptide substrate, 2 hours at 25° C.; read-out: IC50 Kinase Domain.
Chain of PASK (Invitrogen) (Q96RG2 999-1251): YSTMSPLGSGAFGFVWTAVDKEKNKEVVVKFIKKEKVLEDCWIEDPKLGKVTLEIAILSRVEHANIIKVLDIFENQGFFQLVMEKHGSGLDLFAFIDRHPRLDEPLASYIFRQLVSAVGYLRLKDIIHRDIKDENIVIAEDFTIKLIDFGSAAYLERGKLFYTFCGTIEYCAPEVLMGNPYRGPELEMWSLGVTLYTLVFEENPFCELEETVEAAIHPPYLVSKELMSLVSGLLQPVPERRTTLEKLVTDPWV
Type: biochemical
From the text: The aim of the FRET assay is to determine the inhibition potential of test compounds on targeted kinase. This assay platform provides a homogenous screening method for measuring kinase activity by quantitating the amount of phospho-substrate in solution following a kinase reaction.
In the presence of kinase and ATP, the Ulight-peptide is phosphorylated and captured by an anti-phospho-substrate antibody, which brings the Eu chelate donor and Ulight acceptor dyes into close proximity. Upon excitation at 340 nm, the Eu chelate transfers its energy to the Ulight dye, resulting in a fluorescent light emission at 665 nm.
Titration of kinase at 1 mM ATP was achieved via the following protocol. After making serial three-fold dilutions of PASK (Invitrogen) in reaction buffer across the plate; 5 μl of kinase dilution and 5 μl substrate/ATP mix were added to the wells of the white Optiplate-384 (PerkinElmer). The contents of the plate were and incubated at RT for 1 h. The reaction was stopped by adding 5 μl of stop solution to each test well followed by mixing and incubation at RT for 10 minutes. 5 μl of detection mix (detection antibody diluted in detection buffer) was added; the contents of the plate were mixed and then incubated in the dark for 1 hour at RT. The signal was recorded at TR-FRET mode (665 nm/615 nm). The results were graphed to calculate the EC50.
Titration of ATP at the EC50 concentration of kinase to determine ATP Km,app. was performed using the following method. After making serial dilutions of ATP (Invitrogen), 5 μl of ATP dilution and 5 μl substrate/kinase mix were added to the wells of the white Optiplate-384 (PerkinElmer). The contents of the plate were and incubated at RT for 1 h. The reaction was stopped by adding 5 μl of stop solution to each test well followed by mixing and incubation at RT for 10 minutes. 5 μl of detection mix (detection antibody diluted in detection buffer) was added; the contents of the plate were mixed and then incubated in the dark for 1 hour at RT. The signal was recorded at TR-FRET mode (665 nm/615 nm). The results were graphed to calculate the EC50 as the ATP Km,app.
Compound screening was done via the following method. 10 mM stock solution of test compound in DMSO was prepared by dissolving test compound in DMSO at RT for 1 hour, and then sonicating at 100% output for 8 minutes. If compound is not soluble under this condition, it was diluted to 3 mM. Kinase reaction buffer was prepared containing 10 mM MgCl2, 50 mM HEPES, 1 mM EGTA, 0.01% TWEEN-20, 2 mM DTT. Serial dilutions of the test compounds were prepared at 4×final assay concentrations using Freedom EVO200® dispensing system as follows: 12×10^−5 M, 4×10^−5 M, 1.33×10^−5 M, 4.44×10^−6 M, 1.48×10^−6 M, 4.92×10^−7 M, 1.65×10^−7 M, 5.48×10^−7 M, 1.82×10^−8 M, 6.09×10^−9, 2.03×10^−9 M. Test compounds (2.5 μl at 4×the final assay concentration) was added to wells using Freedom EVO200® dispensing system. As a positive control, 2.5 μl of positive compound was added to assay wells, and 2.5 μl of DMSO to assay wells as vehicle control. Kinase solution was prepared in reaction buffer at 2×final assay concentration. Kinase solution (5 μl) was added to each well of the assay plate. The substrate and ATP solution was prepared in kinase reaction buffer at 4×final assay concentration. The kinase reaction was started by adding 2.5 μl of substrate+ATP mix solution to each well of the assay plate. The plate is mixed on a plate shaker; then covered and allowed to react for 2 hours in the dark at 25° C. without shaking. The reaction was stopped by adding 5 μl of stop solution to each test well followed by mixing and incubation at RT for 10 minutes in the dark. 5 μl of detection mix (detection antibody diluted in detection buffer) was added; the contents of the plate were mixed and then incubated in the dark for 1 hour at RT. The signal was recorded at TR-FRET mode (665 nm/615 nm).
With `O=c1cc(-c2ccc3c(c2)OCO3)[nH]c2nc(Cc3ccccc3)nn12` [Example 1, 5-(Benzo[d][1,3]dioxol-5-yl)-2-benzyl-[1,2,4]triazolo[1,5-a]pyrimidin-7(4H)-one] the IC50 was ≤ 10 µM.
With `O=c1cc(-c2ccc3[nH]nnc3c2)[nH]c2nc(-c3ccccn3)nn12` [Example 2, 5-(1H-Benzo[d][1,2,3]triazol-5-yl)-2-(pyridin-2-yl)-[1,2,4]triazolo[1,5-a]pyrimidin-7(4H)-one] the IC50 was ≤ 10 µM.
In the case of `O=c1cc(-c2ccc3[nH]ncc3c2)[nH]c2nc(-c3ccccn3)nn12` [Example 3, 5-(1H-Indazol-5-yl)-2-(pyridin-2-yl)-[1,2,4]triazolo[1,5-a]pyrimidin-7(4H)-one], the IC50 is reported as ≤ 10 µM.
`Cc1nc2[nH]c(-c3ccc4[nH]ncc4c3)cc(=O)n2n1` [Example 4, 5-(1H-indazol-5-yl)-2-methyl-[1,2,4]triazolo[1,5-a]pyrimidin-7(4H)-one] was tested, and the IC50 was ≤ 10 µM.
In the case of `CCc1nc2[nH]c(-c3ccc4[nH]ncc4c3)cc(=O)n2n1` [Example 5, 2-Ethyl-5-(1H-indazol-5-yl)-[1,2,4]triazolo[1,5-a]pyrimidin-7(4H)-one], the IC50 is reported as ≤ 10 µM.
For `CCc1nc2[nH]c(-c3ccc4[nH]nnc4c3)cc(=O)n2n1` [Example 6, 5-(1H-Benzo[d][1,2,3]triazol-5-yl)-2-ethyl-[1,2,4]triazolo[1,5-a]pyrimidin-7(4H)-one], the IC50 was ≤ 10 µM.
`CNC(=O)c1nc2[nH]c(-c3ccc4[nH]nnc4c3)cc(=O)n2n1` [Example 7, 5-(1H-Benzo[d][1,2,3]triazol-5-yl)-N-methyl-7-oxo-4,7-dihydro-[1,2,4]triazolo[1,5-a]pyrimidine-2-carboxamide] was tested, and the IC50 was ≤ 10 µM.
`O=c1cc(-c2ccc3[nH]ncc3c2)[nH]c2nc(-c3ccc(Cl)c(Cl)c3)nn12` [Example 10, 2-(3,4-Dichlorophenyl)-5-(1H-indazol-5-yl)-[1,2,4]triazolo[1,5-a]pyrimidin-7(4H)-one] was tested, and the IC50 was ≤ 10 µM.
For `O=c1cc(-c2ccc3[nH]ncc3c2)[nH]c2nc(-c3cccc(Cl)c3)nn12` [Example 12, 2-(3-Chlorophenyl)-5-(1H-indazol-5-yl)-[1,2,4]triazolo[1,5-a]pyrimidin-7(4H)-one], the IC50 was ≤ 10 µM.
With `O=c1cc(-c2ccc3[nH]nnc3c2)[nH]c2nc(-c3cccc(Cl)c3)nn12` [Example 13, 5-(1H-Benzo[d][1,2,3]triazol-5-yl)-2-(3-chlorophenyl)-[1,2,4]triazolo[1,5-a]pyrimidin-7(4H)-one] the IC50 was ≤ 10 µM.
For `CC(C)c1nc2[nH]c(-c3ccc4[nH]nnc4c3)cc(=O)n2n1` [Example 14, 5-(1H-Benzo[d][1,2,3]triazol-5-yl)-2-isopropyl-[1,2,4]triazolo[1,5-a]pyrimidin-7(4H)-one], the IC50 was ≤ 10 µM.
With `Cc1nc2[nH]c(-c3ccc4c(c3)OCCO4)cc(=O)n2n1` [Example 16, 5-(2,3-Dihydrobenzo[b][1,4]dioxin-6-yl)-2-methyl-[1,2,4]triazolo[1,5-a]pyrimidin-7(4H)-one] the IC50 was ≤ 10 µM.
In the case of `O=c1cc(-c2ccc3c(c2)OCCO3)[nH]c2ncnn12` [Example 17, 5-(2,3-Dihydrobenzo[b][1,4]dioxin-6-yl)-[1,2,4]triazolo[1,5-a]pyrimidin-7(4H)-one], the IC50 is reported as ≤ 10 µM.
In the case of `O=c1cc(-c2ccc3c(c2)OCCO3)[nH]c2nc(Cc3ccccc3)nn12` [Example 18, 2-Benzyl-5-(2,3-dihydrobenzo[b][1,4]dioxin-6-yl)-[1,2,4]triazolo[1,5-a]pyrimidin-7(4H)-one], the IC50 is reported as ≤ 10 µM.
`COc1ccc(-c2cc(=O)n3nc(Cc4ccccc4)nc3[nH]2)cc1` [Example 19, 2-Benzyl-5-(4-methoxyphenyl)-[1,2,4]triazolo[1,5-a]pyrimidin-7(4H)-one] was tested, and the IC50 was ≤ 10 µM.
In the case of `O=c1cc(-c2ccc3[nH]ncc3c2)[nH]c2nc(-c3ccc(F)cc3)nn12` [Example 20, 2-(4-Fluorophenyl)-5-(1H-indazol-5-yl)-[1,2,4]triazolo[1,5-a]pyrimidin-7(4H)-one], the IC50 is reported as ≤ 10 µM.
In the case of `CCn1ncc2cc(-c3cc(=O)n4nc(-c5ccc(F)cc5)nc4[nH]3)ccc21` [Example 21, 5-(1-Ethyl-1H-indazol-5-yl)-2-(4-fluorophenyl)-[1,2,4]triazolo[1,5-a]pyrimidin-7(4H)-one], the IC50 is reported as ≤ 10 µM.
